Test results reported in patent US9364462B2, “Alpha-1-adrenergic receptor agonist therapy” (The Regents of the University of California, priority 2012, dated 2016).

How the values were obtained:
cardiac myocytes = assay: Cardiac cell protective and adaptive (anabolic) effects in vitro, comparison of alpha-1-agonists; type: cell-based
[1] = Learning and memory, Barnes maze, long-term treatment of normal WT mice; type: in vivo, mouse; settings: 9 months, 10 mg/L in drinking water
Protocol: FIG. 18. Long-term alpha-1A agonist therapy improves learning and memory. Normal WT mice were treated 9 months with the alpha-1A agonist cirazoline, 10 mg/L in drinking water, and learning and memory were tested versus control mice using the Barnes maze. Left. […] Right. […] These studies treated mice for long periods with cirazoline, adding it to the drinking water. Mice treated with cirazoline had improvements in tests of learning and of memory (FIG. 18). […] 9 months in a mouse is equivalent to 18 to 27 years in a human.

Which “potency and efficacy relative to A61603” value (cardiac myocytes; cardiac myocytes, FIG. 1-2) does the source give for `c1ccc(C2CC2)c(OCC2=NCCN2)c1` [cirazoline] here?
Its value is “a good bit less potent and efficacious”.

What about the “specificity, potency, efficacy in stimulating anabolic effects in cells relative to A61603” value (cardiac myocytes; cells (e.g. cardiac myocytes)) of the same compound?
The value was “not as specific, potent, or efficacious as A61603”.

And the “memory trials (errors made)” value [1]?
The value was “Findings were similar”.

And the “errors in learning trials” value ([1]; vs control mice)?
Its value is “fewer errors”.

And the “time to solve in learning trials” value ([1]; vs control mice)?
The value was “faster to solve”.
